In brackets after ≈: the same amount, converted by molar mass.
Columns and labels:
[1] = Tmax in human at […], po after 3 months; format: ADME, organism-based; conditions: in vivo
[2] = Aqueous solubility of the compound; format: physicochemical
[3] = Cmax in human at […], po after 3 months; format: ADME, organism-based; set-up: route oral; conditions: in vivo

Tmax [1]: 1 to 2 h
solubility [2]: 1000 to 10000 µg/mL (≈ 2.71 to 27.1 mM)
Cmax [3]: 1770 nM
Compound: COc1cc(/C=C/C(=O)CC(=O)/C=C/c2ccc(O)c(OC)c2)ccc1O [CURCUMIN]

From ChEMBL document CHEMBL4373716, “Curcumin as tyrosine kinase inhibitor in cancer treatment” (Eur J Med Chem, 2019)
